Literature values in patent publication US20050113418A1, “Administration of pharmaceuticals” (priority 1996, published 2005).

Details: Lind et al, Gut 1983

COc1ccc2[nH]c([S+]([O-])Cc3ncc(C)c(OC)c3C)nc2c1 (stereo not shown) [Omeprazole, omeprazole]
plasma half-life: 30 to 60 min
